Laboratory results as given in US10195282B2, “Use of alginate formulation for intraincisional drug delivery” (UNIVERSITY OF SOUTHERN CALIFORNIA, priority 2014, dated 2019).
Non-standard residues stand in square brackets, D forms with d. Residues, ends and D or L forms follow the SMILES beside them. Nle = CCCC[C@H](N)C(=O)O

Test system: full thickness incision wounds in a rat model
Assay: Scar formation dose-response of NorLeu3-A(1-7) in 2.5% alginate crosslinked with 5 mM CaCl2 (Example 3)
Assay type: in vivo, Sprague Dawley rats
Conditions: 1 mg/ml in the formulation; compared with surgical and vehicle controls; day 21
Protocol: This example was designed to determine the formation and remodeling of scar by clinical and histological evaluations in full thickness incision wounds in a rat model. Various doses of active ingredient were delivered in 2.5% alginate crosslinked with 5 mM CaCl2. • Species: • Sprague Dawley • Female (n=5/group for histology; 3/group for tensile strength) • Parameters Measured: • Appearance of Healing Wound (Gross and Histological of Dense Collagen by Image J) • Tensile Strength • Central, Blinded Adjudication of Photos on Day 21 • Photographic serial imaging • Experimental Groups: Surgical control, vehicle (2.5% alginate crosslinked with 5 mM CaCl2) and 2.5% alginate crosslinked with 5 mM CaCl2 with 0.3, 1, 3 or 5 mg/ml DSC127) Methods
Alginate was supplied by FMC BioPolymer. […]
During the experimental period, Sprague Dawley rats, 200-225 grams, were housed one per cage and maintained in a central animal care facility with a 12-hour light/dark cycle. […] The six tests groups that were evaluated are: surgical control, vehicle control and 30, 100, 300 or 500 μg/wound of NorLeu3-A(1-7) in the vehicle. […] The animals were monitored for breathing, urination and movement during the postoperative interval. […] During the first two weeks after surgery, scabbing, dehiscence and inflammation were assessed. […]
Scabbing was assessed on a 4-point scale (0,1,2,3) for none, mild, moderate and severe, respectively. […]

- Inflammation at the site of the incision scored on histological sections: trend towards reduced inflammation
Compound: CCCC[C@H](NC(=O)[C@H](CCCNC(=N)N)NC(=O)[C@@H](N)CC(=O)O)C(=O)N[C@@H](Cc1ccc(O)cc1)C(=O)N[C@H](C(=O)N[C@@H](Cc1c[nH]cn1)C(=O)N1CCC[C@H]1C(=O)O)[C@@H](C)CC [NorLeu3-A(1-7), Asp-Arg-Nle-Tyr-Ile-His-Pro] (H-DR[Nle]YIHP-OH; N-terminus and C-terminus assumed)
